The results in this text go back to ChEMBL document CHEMBL5233269, “Anticancer potential of spirocompounds in medicinal chemistry: A pentennial expedition” (Eur J Med Chem, 2021).

pIC50: −log10 of the molar value.

The subject of data set [1] is MCF7. Nature of the data set: Antiproliferative activity against human MCF7 cells assessed as inhibition of cell viability. Type of data set: functional, cell-based.
The next data set concerns K562. Nature of the data set: Antiproliferative activity against human K562 cells assessed as inhibition of cell viability. Type of data set: functional, cell-based.
Data set [2] has as its target cGMP-specific 3',5'-cyclic phosphodiesterase (Homo sapiens) (UniProt O76074). Nature of the data set: Inhibition of PDE5 (unknown origin) at 3 nM relative to control.
A further data set relates to A-431. Nature of the data set: Anticancer activity against human A-431 cells. It is filed as functional, cell-based.
Data set [3] deals with MCF7. Nature of the data set: Anticancer activity against human MCF7 cells assessed as reduction of cell growth. Type of data set: functional, cell-based.
Data set [4] is described as follows: Anticancer activity against human MCF-10A cells assessed as reduction of cell growth. Type of data set: toxicity, cell-based.
For data set [5], the system named is PC-3. Nature of the data set: Anticancer activity against human PC-3 cells assessed as reduction of cell growth. Type of data set: functional, cell-based.
The next data set concerns LNCaP. Nature of the data set: Anticancer activity against human LNCaP cells at 100 uM relative to control. It is filed as functional.
Data set [6] concerns PC-3. Nature of the data set: Anticancer activity against human PC-3 cells at 100 uM relative to control. It is filed as functional.
In another data set the test system is HeLa. Nature of the data set: Anticancer activity against human HeLa cells assessed as inhibition of cell proliferation. Type of data set: functional, cell-based.
The test system of the next data set is B16-F10. Nature of the data set: Anticancer activity against mouse B16-F10 cells. Type of data set: functional, cell-based.
Another data set concerns 4T1. Nature of the data set: Anticancer activity against mouse 4T1 cells at 200 microg/ml measured after 48 hrs relative to control. It is filed as functional.
In another data set the test system is HepG2. Nature of the data set: Anticancer activity against human HepG2 cells at 200 microg/ml measured after 48 hrs relative to control. It is filed as functional.
In data set [7] the target is Tumour suppressor p53/oncoprotein Mdm2 (Homo sapiens) (UniProt P04637+Q00987). Nature of the data set: Inhibition of MDM2/p53 (unknown origin) interaction at 10 uM relative to control. It is filed as protein assay.
Chain of Tumour suppressor p53/oncoprotein Mdm2 (Homo sapiens) (P04637 whole entry, looked up): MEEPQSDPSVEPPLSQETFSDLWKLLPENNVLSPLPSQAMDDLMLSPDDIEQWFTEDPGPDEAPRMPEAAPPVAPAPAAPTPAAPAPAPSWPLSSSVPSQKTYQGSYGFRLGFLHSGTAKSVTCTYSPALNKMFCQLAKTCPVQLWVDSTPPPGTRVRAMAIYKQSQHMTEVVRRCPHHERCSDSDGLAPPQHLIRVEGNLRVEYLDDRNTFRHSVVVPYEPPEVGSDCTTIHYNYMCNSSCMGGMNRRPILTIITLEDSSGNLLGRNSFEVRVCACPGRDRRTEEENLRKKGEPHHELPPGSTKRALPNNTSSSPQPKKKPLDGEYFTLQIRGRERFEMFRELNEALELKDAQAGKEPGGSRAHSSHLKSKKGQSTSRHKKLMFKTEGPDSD
Chain of Tumour suppressor p53/oncoprotein Mdm2 (Homo sapiens) (Q00987 whole entry, looked up): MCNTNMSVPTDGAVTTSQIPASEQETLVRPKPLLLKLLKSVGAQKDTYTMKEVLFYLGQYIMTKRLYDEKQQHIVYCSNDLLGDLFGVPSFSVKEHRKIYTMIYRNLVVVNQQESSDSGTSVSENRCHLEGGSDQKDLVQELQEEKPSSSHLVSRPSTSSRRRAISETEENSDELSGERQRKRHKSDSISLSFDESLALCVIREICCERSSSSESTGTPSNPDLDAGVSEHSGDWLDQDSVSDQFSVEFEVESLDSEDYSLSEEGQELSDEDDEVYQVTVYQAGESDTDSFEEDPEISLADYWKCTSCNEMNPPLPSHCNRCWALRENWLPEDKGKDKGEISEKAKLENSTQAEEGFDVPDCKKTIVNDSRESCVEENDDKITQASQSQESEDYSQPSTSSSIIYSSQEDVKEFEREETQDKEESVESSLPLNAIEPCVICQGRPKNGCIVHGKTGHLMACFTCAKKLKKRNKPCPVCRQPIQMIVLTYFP

In general, pIC50 refers to the negative decadic logarithm of the IC50, by convention in mol/L. On to `O=C1/C(=C/c2ccc(Br)cc2)CCCC12[C@@H]1CCCN1[C@@]1(C(=O)Nc3ccccc31)[C@H]2c1ccc(Br)cc1` (stereo not given in full), for which the values for the pIC50 in the data set on MCF7 [1] and with K562 were 4.81 and 4.80, respectively.

By inhibition is commonly meant the share of the control response that was lost under treatment. In turn, `O=C1NC2(CCCCC2)Nc2ccccc21` yielded an inhibition in [2] of 100%.

In the case of `CC1(C)CC(=O)C2C(C1)N(c1ccccc1F)C(=O)C21c2ccccc2NC2C(=O)CC(C)(C)CC21` (stereo not given), the pIC50 with A-431 is 4.28; in the data set with MCF7 [3] it was 5.11; in data set [4], 4.44; with PC-3 [5], 4.07.

For the molecule `COc1ccc(/C=C2\CCCC3(C2=O)[C@@H]2CCCN2[C@@]2(C(=O)Nc4ccccc42)[C@H]3c2ccc(OC)cc2)cc1` (stereo not given in full), the pIC50 was 4.73 in the data set with MCF7 [1] and 4.87 in the data set with K562.

As to `COc1cccc(N2C(=O)C3(c4ccccc4NC4C(=O)CC(C)(C)CC43)C3C(=O)CC(C)(C)CC32)c1` (stereo not given), the pIC50 is 4.25 with A-431, 5.02 in the data set on MCF7 [3], 4.32 in [4] and 4.06 with PC-3 [5].

For `O=C(/C=C/c1ccc(F)cc1)c1ccc(OP2(Oc3ccc(C(=O)/C=C/c4ccc(F)cc4)cc3)=NP3(=NP4(=N2)Oc2ccccc2-c2ccccc2O4)Oc2ccccc2-c2ccccc2O3)cc1`, the Activity in the data set on LNCaP came out at 57.66%; with PC-3 [6], 35.93%.

In the case of `CN1C(=O)N(C)C(=O)C2(CC3(C(=O)c4ccccc4C3=O)N(C)[C@H]2c2ccc(Br)cc2)C1=O`, the results for the pIC50 in the data set with HeLa and in the data set with B16-F10 were 5.14 and 5.28, respectively.

For `CC1(C)CC(=O)C2C(C1)N(c1ccccn1)C(=O)C21c2ccccc2NC2C(=O)CC(C)(C)CC21` (stereo not given), the pIC50 was 4.37 in the data set on A-431, 5.01 in the data set on MCF7 [3], 4.46 in [4] and 4.14 with PC-3 [5].

For the molecule `Cc1ccccc1/C=C/C(=O)c1ccc(OP2(Oc3ccc(C(=O)/C=C/c4ccccc4)cc3)=NP3(=NP4(=N2)Oc2ccccc2-c2ccccc2O4)Oc2ccccc2-c2ccccc2O3)cc1` (stereo not given), the results for the Activity in the data set on LNCaP and in the data set with PC-3 [6] were 69.04% and 42.36%, respectively.

On to `CN1C(=O)N(C)C(=O)C2(CC3(C(=O)c4ccccc4C3=O)N(C)[C@H]2c2ccccc2)C1=O`, for which the pIC50 in the data set on HeLa is 5.37; with B16-F10, 5.46.

On to `Cc1ccc(C(=O)[C@H]2[C@]3(C(=O)Nc4ccc(F)cc43)[C@@H]3c4ccccc4CCN3[C@@]23C(=O)Nc2ccc(Cl)cc23)cc1`, for which the inhibition at 200 µg/mL worked out at 33.3% in the data set on 4T1 and 73.5% with HepG2.

As for `Cc1ccc2c(c1)[C@]1(C(=O)N2)[C@@H](C(=O)c2ccccc2)[C@]2(C(=O)Nc3ccccc32)[C@@H]2c3ccccc3CCN21`, the inhibition at 200 µg/mL in the data set on 4T1 is 20.8%; in the data set on HepG2 it was 66.7%.

In the case of `O=C(/C=C/c1cccc(F)c1)c1ccc(OP2(Oc3ccc(C(=O)/C=C/c4cccc(F)c4)cc3)=NP3(=NP4(=N2)Oc2ccccc2-c2ccccc2O4)Oc2ccccc2-c2ccccc2O3)cc1`, the results for the Activity with LNCaP and in the data set with PC-3 [6] were 63.78% and 43.71%, respectively.

`CCOC(=O)N1CCC2(CC1)NC(=O)c1ccccc1N2` came in with an inhibition in data set [2] of 100%.

In turn, `CCOC(=O)C1CN(C(=O)N2CCCCC2)C2(C(=O)Nc3ccccc32)C1c1ccccc1O` (stereo not given) yielded an inhibition in data set [7] of 57.7%.

Consider `NC(=O)C1CN(C(=O)N2CCCCC2)C2(C(=O)Nc3ccccc32)C1c1ccccc1O` (stereo not given), for which the inhibition in [7] was 65.4%.

Regarding `O=C1/C(=C/c2c(Cl)cccc2Cl)CCCC12[C@@H]1CCCN1[C@@]1(C(=O)Nc3ccccc31)[C@H]2c1c(Cl)cccc1Cl` (stereo not given in full), the pIC50 in the data set with MCF7 [1] was 4.71; in the data set with K562, 4.78.

Consider `COc1ccc(C(=O)[C@H]2[C@]3(C(=O)Nc4ccc(Cl)cc43)[C@@H]3c4ccccc4CCN3[C@@]23C(=O)Nc2ccc(Cl)cc23)cc1`, for which the inhibition at 200 µg/mL in the data set with 4T1 came to 23.2%; in the data set on HepG2, 70.1%.

`Cc1cc(Cl)ccc1[C@@H]1N(C)C2(CC13C(=O)N(C)C(=O)N(C)C3=O)C(=O)c1ccccc1C2=O`: the pIC50 with HeLa is 3.36; in the data set on B16-F10, 5.08.
